Data on 15 molecules can be found in publication PMC8143069 (Cell Discovery, 2021).

“Also recorded” adds a separate entry of the source. Counter-ions that a name gives are not always drawn. Like-named read-outs stand apart in the source and are kept apart here. Where no end group is shown, it is not given here. [ ]: non-standard residue; d: D form. Lys(Me2) = CN(C)CCCC[C@H](N)C(=O)O A value given as a limit tells only on which side of the number the result lay.

The test system of data set [1] is human recombinant LSD1. It is filed as biochemical.
Data set [2] concerns SARS-CoV-2-infected Caco-2 cells. It is filed as cell-based, human / SARS-CoV-2.
In data set [3] the test system is SARS-CoV-2 spike protein at Caco-2 cell surface. It is filed as cell-based.
Data set [4] concerns ACE2 (pan-methylation lysine), Caco-2 cells. The data set is classed as cell-based, human.
The subject of data set [5] is SARS-CoV-2-infected Caco-2 cells. It is filed as cell-based, human.
The test system of data set [6] is SARS-CoV-2. It is filed as cell-based.
The test system of data set [7] is ACE2-IMPα3 colocalization, SARS-CoV-2-infected Caco-2 cells. It is filed as cell-based, human.
For another data set, the system named is LSD1. Particulars: cited from earlier work.
The subject of data set [8] is ACE2-SARS-CoV-2 spike protein interaction, Caco-2 cells. The data set is classed as cell-based, human / SARS-CoV-2.
Data set [9] deals with Caco-2 cells.
Data set [10] has as its system Caco-2 cells. The source holds these as a separate data set.
Data set [11] concerns SARS-CoV-2. The data set is classed as cell-based. The source holds these as a separate data set.
Data set [12] deals with SARS-CoV-2-infected Caco-2 cells. It is filed as cell-based, human. The source holds these as a separate data set.
In data set [13] the test system is SARS-CoV-2-S-driven entry, Caco-2 cells. As to conditions: cited from earlier work.
A further data set relates to COVID-19. Particulars: cited from earlier work.
The test system of data set [14] is nuclear LSD1/CoREST complex. As to conditions: cited from earlier work.
Data set [15] concerns T cells in human breast cancer. Particulars: cited from earlier work.
Data set [16] relates to human recombinant LSD1. As to the kind of experiment: LSD1 demethylation assay with di-methylated ACE2 peptides as substrates. It is filed as biochemical. As to conditions: for Demethylation of NLS peptides by LSD1 (rank order): LSD1 fluorimetric kit, background subtracted, one-way ANOVA P < 0.0001 (Fig. 4d).
Data set [17] relates to Caco-2 cells. It is filed as physicochemical, human. As to conditions: FAM5-tagged peptide, single treatment, Caco-2 culture, over 96 h, fluorescence imaging.
A further data set relates to ACE2, Caco-2 cells. The data set is classed as cell-based, human. As to conditions: Caco-2, FAM5-tagged NACE2i, single treatment, after 8 h and up to 96 h; P < 0.0001 (Fig. 5b).
The subject of data set [18] is SARS-CoV-2. Particulars: cited from earlier work.

Take `N[C@@H]1C[C@H]1c1ccccc1` (racemic) [tranylcypromine]: the “ACE2 lysine 31 (ACE2me2 peptide) demethylation” value with human recombinant LSD1 [1] is on record as “significantly decreased ACE2 lysine 31 demethylation”.

As to `O=C(O)c1ccc(CN2CCC(CN[C@@H]3C[C@H]3c3ccccc3)CC2)cc1` [GSK, GSK2879552], in data set [2], the “SARS-CoV-2 spike protein expression” value is “decreased SARS-CoV-2 spike protein expression”; the “co-localization of ACE2 and SARS-CoV-2 spike protein” value was “significantly reduced the co-localization of ACE2 and SARS-CoV-2 spike protein”. For the same molecule, the “spike protein expression at the cell surface” value in [3] was “to a greater extent GSK treatment, reduced spike protein expression at the cell surface of infected cells”. Also, in data set [4], the “association between ACE2 and pan-methylation lysine antibody (PLA)” value was “increased the association between ACE2 and pan-methylation lysine antibody in infected cells”. Besides, in data set [5], the “LSD1, ACE2, and TMPRSS2 transcript” value is on record as “remained unaltered”; the “RIG1, MDA5, and ISG15 mRNA” value was “remained unaltered”. The “viral RNA levels in culture supernatants” value in the data set with SARS-CoV-2 [6] was “negligibly reduced viral RNA levels in culture supernatants”. In data set [7], the IMPα3 nuclear expression result is reported as “no effect on IMPα3 nuclear expression”; the “co-localization of ACE2 and IMPα3 (PCC)” value was “minimal effect”. Besides, in the data set with LSD1, the “inhibition of LSD1 catalytic activity (compared with phenelzine)” value is on record as “significantly more potent inhibitor of LSD1 catalytic activity than phenelzine”. For the same molecule, the “ACE2/spike interaction at cell surface (PLA)” value in data set [8] is on record as “significantly decreased interaction”. The cell proliferation entry in the data set with Caco-2 cells [9] was “neither altered cell proliferation”. Moreover, the cell viability in the data set with Caco-2 cells [10] (uninfected Caco-2, up to 72 h, n=3 (Fig. S2d)) was over 90%. In the data set on human recombinant LSD1 [1], the “ACE2 lysine 31 (ACE2me2 peptide) demethylation” value is “further decreases were observed”. Further, in the data set with SARS-CoV-2 [11], the “inhibition of viral RNA in infected cells (comparison)” value is “greatest inhibition of viral RNA in infected cells” and the “viral load, % virus-aligned reads over total reads” value is listed as 1%. Besides, in data set [12], the “enriched Reactome pathways vs control” value is given as “downregulated genes enriched in the IFN pathway” and the “number of differentially expressed genes vs control” value is on record as 73 DEGs.

In the case of `C/C(=N\NC(=O)c1cccc(S(=O)(=O)N2CCOCC2)c1)c1cc(Cl)ccc1O` [SP2509], in the data set on human recombinant LSD1 [1] (LSD1 incubated with inhibitor 30 min at room temperature, LSD1 fluorimetric kit, 40 s intervals, one-way ANOVA P < 0.0001 (Fig. 2a)), the “ACE2 lysine 31 (ACE2me2 peptide) demethylation” value is “showed the highest inhibitory potency of all the LSD1 inhibitors in vitro”.

For the molecule `CN(C)C(=O)COC(=O)Cc1ccc(OC(=O)c2ccc(NC(=N)N)cc2)cc1` [camostat mesylate], the SARS-CoV-2-S-driven entry result in data set [13] was “partially blocked SARS-CoV-2-S-driven entry into Caco-2 cells”.

`CCN(CCO)CCCC(C)Nc1ccnc2cc(Cl)ccc12` (stereo not shown) [hydroxychloroquine]: the “clinical outcome in COVID-19” value with COVID-19 is reported as “lack of effect or even increased harm”.

For the molecule `NNCCc1ccccc1` [phenelzine], in data set [2], the “SARS-CoV-2 spike protein expression” value is “decreased SARS-CoV-2 spike protein expression”; the “co-localization of ACE2 and SARS-CoV-2 spike protein” value was “significantly reduced the co-localization of ACE2 and SARS-CoV-2 spike protein”. For the same molecule, in [3], the “spike protein expression at the cell surface” value is “reduced spike protein expression at the cell surface of infected cells”. Besides, the “disruption of nuclear LSD1/CoREST complex” value in data set [14] is “can disrupt the nuclear LSD1/CoREST complex”. Besides, in data set [5], the “IFNβ and OASL expression” value is on record as “further increased”; the “LSD1, ACE2, and TMPRSS2 transcript” value is “remained unaltered”; the “RIG1, MDA5, and ISG15 mRNA” value is listed as “remained unaltered”. In the data set on SARS-CoV-2 [6], the “viral RNA levels in culture supernatants” value is “negligibly reduced viral RNA levels in culture supernatants”. In data set [7], the IMPα3 nuclear expression result was “no effect on IMPα3 nuclear expression”; the “co-localization of ACE2 and IMPα3 (PCC)” value was “minimal effect”. For the same molecule, the T cell responses result in [15] is given as “epigenetically restore T cell responses in human breast cancer”. Moreover, in the data set on Caco-2 cells [9], the cell proliferation entry is recorded as “neither altered cell proliferation”. For the same molecule, the cell viability in the data set with Caco-2 cells [10] was over 90%. In [12], the “DUSP1, DUSP6, DUPS8 expression” value was “highly upregulated”; the IRF7 gene expression result is “upregulation of IRF7 gene expression”; the “enriched Reactome pathways vs control” value was “translation and MAPK pathways were enriched; also recorded: post-transcriptional protein phosphorylation and amino acid synthesis and interconversion (transamination) processes were significantly enriched; also recorded: regulates MAPK signaling-related pathways”; the “number of differentially expressed genes vs control” value was 1059 DEGs.

Take QAKTFLD[Lys(Me2)]FNHEAED [ACE2me2]: the “Demethylation of peptide by LSD1 (substrate)” value with human recombinant LSD1 [16] (ACE2me2 peptide, lysine 31, fluorescence) is given as “efficiently de-methylated”.

For the molecule “TGIRDRKKKNKARS-(FAM5) [FAM5-tagged NACE2i]”, in the data set on Caco-2 cells [17], the peptide stability result was “stable over time”. Besides, the “nuclear ACE2 expression over time” value in the data set on ACE2, Caco-2 cells is “significantly inhibited nuclear ACE2 expression after 8 h and up to 96 h”.

With TGIRDRKK[Lys(Me2)]NKARS [PEP3], in the data set with human recombinant LSD1 [16], the “Demethylation of NLS peptides by LSD1 (rank order)” value (from here on “Demethylation of NLS peptides”) is “followed by PEP3, PEP2, and PEP1”.

On to TGIRDRK[Lys(Me2)]KNKARS [PEP2], for which the “Demethylation of NLS peptides” value with human recombinant LSD1 [16] is “followed by PEP3, PEP2, and PEP1”.

With TGIRDR[Lys(Me2)]KKNKARS [PEP1], in the data set with human recombinant LSD1 [16], the “Demethylation of NLS peptides” value was “followed by PEP3, PEP2, and PEP1”.

For TGIRDR[Lys(Me2)]K[Lys(Me2)]NKARS [PEP4], the “Demethylation of NLS peptides” value in the data set on human recombinant LSD1 [16] is recorded as “greatest demethylation”.

Consider ivermectin, for which the SARS-CoV-2 replication entry in the data set with SARS-CoV-2 [18] is “inhibits SARS-CoV-2 replication”.

Take tocilizumab: the “clinical outcome in COVID-19” value in the data set with COVID-19 is “mixed results in clinical studies”.

B1: sarilumab (antibody, chains of the INN, looked up, V domains shown)
VH: EVQLVESGGGLVQPGRSLRLSCAASRFTFDDYAMHWVRQAPGKGLEWVSGISWNSGRIGYADSVKGRFTISRDNAENSLFLQMNGLRAEDTALYYCAKGRDSFDIWGQGTMVTVSS
VL: DIQMTQSPSSVSASVGDRVTITCRASQGISSWLAWYQQKPGKAPKLLIYGASSLESGVPSRFSGSGSGTDFTLTISSLQPEDFASYYCQQANSFPYTFGQGTKLEIK
On to B1, for which the “clinical outcome in COVID-19” value in the data set with COVID-19 was “mixed results in clinical studies”.
